Measured values: patent publication US12391641B2, “Prostaglandin EP4 receptor antagonist compounds” (NXERA PHARMA UK LIMITED, priority 2019, dated 2025)

Target: T1, Human prostaglandin E2 receptor 4 (EP4) (Homo sapiens, UniProt P35408)
T1 construct: expressed in transfected cells; host or cells: HEK293 cells transduced with EP4 BacMam virus
Assay: cAMP Gs Functional Assay (HTRF cAMP dynamic-2), antagonism of PGE2
Assay type: cell-based
Settings: HEK293 cells transfected with EP4 BacMam virus; PGE2 challenge at EC80 (7 nM); pIC50 converted to functional pKb with a modified Cheng Prussoff equation; read-out: Human EP4 fpKb (converted)
Procedure: Cloning, Baculovirus generation, large scale infection of HEK293 cells and membrane preparation: Human prostaglandin E2 receptor 4 (EP4) was cloned into pBacMam expression vector (GeneScript, UK). Transposition of EP4 DNA was performed using Invitrogen's Bac-to-Bac Baculovirus Expression Systems. P0 baculovirus was generated by transfecting SF9 Cells with bacmid DNA using Cellfectin II transfection reagent (ThermoFisher Scientific, UK, catalog number 10362-100). Following P0 generation P1 virus was then generated ready for large scale infection and membrane preparation. HEK293 cells were grown in DMEM+Glutamax, supplemented with 10% heat inactivated fetal bovine serum (FBS). Cells were infected at a seeding density of 3.5 million cells/mL in 500 cm^3 flasks at 5% v/v EP4 Bacman. Expression was carried out over 36 hr period at 37° C. with 5% CO2. The cells were removed using PBS and a cell scrapper. The cell culture was centrifuged at 2500 RPM for 10 mins at 4° C. The supernatant was then poured off and the pellet stored at −80° C. The pellet was defrosted and re-suspended in 15 mL of homogenising buffer (20 mM HEPES, 10 mM EDTA, pH 7.4). Then homogenised in mechanical homogeniser (VMR) for 10 seconds. The membrane was centrifuged in centrifuge tubes at 40,000 g for 15 mins at 4° C. The supernatant was poured away and re-suspended in 15 mL of homogenising buffer. Homogenised for 20 seconds. The membrane was centrifuged at 40,000 g for 45 mins at 4° C. The membrane was re-suspended in 3 mL of storage buffer (20 mM HEPES, 0.1 mM EDTA, pH 7.4) mixing well. The resulting membranes were then stored at −80° C.
cAMP Gs Functional Assay: cAMP production following EP4 receptor activation was determined using the Homogeneous Time-Resolved Fluorescence (HTRF) cAMP dynamic-2 assay (Cisbio, France). HEK293 cells were transfected using a 0.5% EP4 Bacman virus for 36 hours, before dissociating the cells, and freezing at […].
On the day of testing, increasing concentration of test compounds, alongside positive controls (1 uM ONO-AE3-208) and negative control (DMSO (Sigma-Aldrich, UK) were added to a ProxiPlate-384 Plus, White 384-shallow well Mircoplate, (PerkinElmer, USA) using the ECHO dispense.
Cells were defrosted in a water bath and resuspended in DMEM supplemented with 10% FBS before centrifuging at 1200 RPM for 5 mins to form a pellet. The pellet was resuspended in assay buffer (DMEM+0.5 mM IBMX (Tocris, Abingdon, UK, Catalog Number 2845)) to a 1×10^6 cells/mL. Cell suspension, for a final assay concentration of 5000 cell/well was added using the multidrop to the pre-dispensed assay plate. The plate was then incubated at 37° C. for 30 mins, with 5% CO2. After incubation, EC80 concentration (7 nM) of PGE2 (EP4 agonist) was added to the plate. In parallel, a PGE2 dose-response curve was dispense to a separate plate. Assay buffer was then dispensed on top. The cAMP production was determined as manufacturer's instructions, before plates were read on a PheraStar fluorescence plate reader (BMG LabTech, Germany).
The pIC50 was converted to a functional pKb value using a modified Cheng Prussoff equation where Kd=agonist EC50 and Lhot=agonist challenge concentration;

T1 sequence (P35408 whole entry): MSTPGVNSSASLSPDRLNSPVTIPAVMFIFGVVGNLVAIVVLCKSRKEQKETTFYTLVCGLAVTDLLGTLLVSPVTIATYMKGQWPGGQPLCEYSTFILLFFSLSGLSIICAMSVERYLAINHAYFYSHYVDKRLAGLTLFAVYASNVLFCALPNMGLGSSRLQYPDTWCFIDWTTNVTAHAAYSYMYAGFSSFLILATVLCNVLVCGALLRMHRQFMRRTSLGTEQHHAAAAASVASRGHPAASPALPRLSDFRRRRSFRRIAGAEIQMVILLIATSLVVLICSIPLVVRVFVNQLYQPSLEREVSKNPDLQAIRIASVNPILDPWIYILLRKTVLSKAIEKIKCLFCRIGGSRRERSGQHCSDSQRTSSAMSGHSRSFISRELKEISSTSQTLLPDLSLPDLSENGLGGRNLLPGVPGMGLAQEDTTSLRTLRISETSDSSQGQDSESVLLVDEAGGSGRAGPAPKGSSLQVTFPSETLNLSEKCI

SMILES	Ki [nM]
CC(C)[C@H](OCc1ccc(S(C)(=O)=O)cc1)C(=O)N[C@@H](C)c1ccc(C(=O)O)cc1 [Example 9, 4-((S)-1-((S)-3-methyl-2-((4-(methylsulfonyl)benzyl)oxy)butanamido)ethyl)benzoic acid]	> 195
CC(C)[C@@H](OCc1ccc(Cl)cc1)C(=O)N[C@@H](C)c1ccc(C(=O)O)cc1 [Example 11, 4-((S)-1-((R)-2-((4-chlorobenzyl)oxy)-3-methylbutanamido)ethyl)benzoic acid]	3.16
Cc1cc([C@H](C)NC(=O)[C@H](OCc2ccc(C(F)(F)F)cc2)C(C)C)ccc1C(=O)O [Example 36, 2-methyl-4-((S)-1-((R)-3-methyl-2-((4-(trifluoromethyl)benzyl)oxy)butanamido)ethyl)benzoic acid]	25.7
CC(C)[C@@H](OCc1ccc(C(F)F)cc1)C(=O)N[C@@H](C)c1ccc(C(=O)O)cc1 [Example 13, 4-((S)-1-((R)-2-((4-(difluoromethyl)benzyl)oxy)-3-methylbutanamido)ethyl)benzoic acid]	2.34
COc1ccc(COC(C(=O)N[C@@H](C)c2ccc(C(=O)O)cc2)C(C)C)cc1 (mixture of isomers) [Example 6, 4-((1S)-1-(2-((4-methoxybenzyl)oxy)-3-methylbutanamido)ethyl)benzoic acid]	28.2
CC(C)[C@@H](OCc1ccc(F)c(F)c1)C(=O)NC1(c2ccc(C(=O)O)cc2)CC1 [Example 37, (R)-4-(1-(2-((3,4-difluorobenzyl)oxy)-3-methylbutanamido)cyclopropyl)benzoic acid]	1.23
CC(C)[C@@H](OCc1ccc(S(C)(=O)=O)cc1)C(=O)N[C@@H](C)c1ccc(C(=O)O)cc1 [Example 10, 4-((S)-1-((R)-3-methyl-2-((4-(methylsulfonyl)benzyl)oxy)butanamido)ethyl)benzoic acid]	20.4

Other lines, results leading:

Ki [nM]	SMILES
> 12900	CC(C)[C@@H](OCc1cccc(C#N)c1)C(=O)NC1(c2ccc(C(=O)O)cc2)CC1 [Example 54, (R)-4-(1-(2-((3-cyanobenzyl)oxy)-3-methylbutanamido)cyclopropyl)benzoic acid]
20	CC(C)[C@@H](OCc1cccc(S(=O)(=O)C2CC2)c1)C(=O)NC1(c2ccc(C(=O)O)cc2)CC1 [Example 91, (R)-4-(1-(2-((3-(cyclopropylsulfonyl)benzyl)oxy)-3-methylbutanamido)cyclopropyl)benzoic acid]
0.589	CC(C)[C@@H](OCc1cccc(OC(F)F)c1)C(=O)NC1(c2ccc(-c3nnn[nH]3)cc2)CC1 [Example 72, (R)—N-(1-(4-(1H-tetrazol-5-yl)phenyl)cyclopropyl)-2-((3-(difluoromethoxy)benzyl)oxy)-3-methylbutanamide]
64.6	CC(C)[C@@H](OCc1ccc(C(F)(F)F)cc1)C(=O)N[C@@H](C)c1ccc(C(=O)NS(C)(=O)=O)cc1 [Example 53, 4-((S)-1-((R)-3-methyl-2-((4-(trifluoromethyl)benzyl)oxy)butanamido)ethyl)-N-(methylsulfonyl)benzamide]
9.77	CC(C)[C@@H](OCc1ccc(C(F)(F)F)cc1)C(=O)NCc1ccc(C(=O)O)cc1 [Example 59, (R)-4-((3-methyl-2-((4-(trifluoromethyl)benzyl)oxy)butanamido)methyl)benzoic acid]
141	CC(C)C(OCc1cccc(C2COC2)c1)C(=O)N[C@@H](C)c1ccc(C(=O)O)cc1 (single isomer, unassigned) [Example 48]
15.5	O=C(O)c1ccc(C2(NC(=O)[C@@H](OCc3cccc(OC(F)F)c3)C3CCC3)CC2)cc1 [Example 100, (S)-4-(1-(2-cyclobutyl-2-((3-(difluoromethoxy)benzyl)oxy)acetamido)cyclopropyl)benzoic acid]
64.6	CC(C)C(OCc1ccc(C2COC2)cc1)C(=O)N[C@@H](C)c1ccc(C(=O)O)cc1 (mixture of isomers) [Example 47, 4-((1S)-1-(3-methyl-2-((4-(oxetan-3-yl)benzyl)oxy)butanamido)ethyl)benzoic acid]
